For experiment [1], the target named is PIKFYVE (Homo sapiens, UniProt Q9Y2I7). In words: Eurofins kinase assay service (Kd). In kind it is binding. As for the experimental part:
(§1) Supplementary Fig. 2 UNI418 inhibits PIP5K1B/C and PIKfyve. a Inhibition graph of PIP5K1 kinases at the 10 point titration with UNI418. IC 50 value of PIP5K1 kinases was analyzed by Thermo Fisher Scientific’s SelectScreen kinase profiling service. b Kd (nM) values of PIP5K1C and PIKfyve inhibition were determined using the Eurofins kinase assay service.
(§2) (1 picture or pasted object on this page, not shown here)

Experiment [2] deals with RPE1 cells. In words: Vacuolization analysis. It is filed as cell-based. As for the experimental part:
(§3) CUGAUCAAGAU G A -3 and PIKfyve#2 siRNA 5'-
(§4) […] -3'. siRNA oligonucleotides were purchased from Genolution, Sigma- Aldrich and Integrated DNA Technologies.
(§5) These siRNAs were transfected into the cell using lipofectamine RNAiMAX (Invitrogen, 13778150) following manufacturer ’s protocol.
(§6) RPE1 cells were treated with UNI418 at indicated concentration for over-night.
(§7) After that, the image was taken by EVOS M5000 (Thermo Fisher Scientific).
(§8) RPE1 cells were treated with UNI418 at the different concentration during the time. Live cell images were taken by Lionheart LX Automated Microscope and analyzed in Gen5 (Agilent).
RPE1 cells were treated with indicated doses of UNI418 overnight. To analyze PIP2 level by flow cytometry, trypsinized cells were fixed with 4% paraformaldehyde for 10 min at room temperature. The fixed cells were permeabilized with 0.2% PBS-T (Triton X-100) for 5min and blocked with 5% Bovine Serum Albumin (BSA), and stained with the primary antibody for 4h at 4°C. Cells were washed three times with 1% BSA-PBS and incubated with the fluorescence- conjugated secondary antibody Alexa Fluor® 488 AffiniPure Goat Anti-Mouse IgG (H+L) (Jackson ImmunoResearch,111- 545- 003) for 1h at room temperature analyzed by BD Accuri C6 Plus flow cytometer (BD Biosciences). […]

For experiment [3], the target named is PIP5K1C (Homo sapiens, UniProt O60331). In words: SelectScreen Kinase Profiling Service (single point and 10 point titration). It is filed as biochemical.
Text: (§9) UNI418 has a core structure consisting of 4-quinazolinamine (Fig. 1a, green), which is often found in kinase inhibitors. […] The phosphoinositide (PI) system is a crucial regulatory mechanism in membrane trafficking and is tightly regulated through phosphorylation cascades by multiple phosphatidylinositol phosphate kinases (PIPKs)[30]. We hypothesized that UNI418 may inhibit PIPK(s) and performed PIPK profiling analysis. […] To test whether UNI418 interacts with PIP5K1C and PIKfyve, we performed a CETSA, which determines the characteristics of protein stabilization upon ligand binding to the target protein[31]. UNI418- or DMSO-treated cell lysates were incubated at different temperatures, and the presence of the target protein in the soluble fraction was analyzed by Western blotting (Fig. 1c).
(§10) Fig. 1 UNI418 specifically targets PIP5K1 and PIKfyve. a Chemical structure of UNI418. The 4-quinazolinamine core is highlighted in green. b Table of the kinase profiling analysis. Inhibition of several kinases was determined at a 1 μM concentration of UNI418 and analyzed by the SelectScreen Kinase Profiling Service (Thermo Fisher Scientific). c Cellular thermal shift assay. Ectopically expressed GFP-PIP5K1C and GFP-PIKfyve were heated to the indicated temperatures with/without UNI418, and the presence of protein in the soluble fraction was analyzed by Western blot analysis. TEXT PRINTED IN THE PICTURE: (b) UNI418: % Inhibition (mean): 11 ([ATP] Tested (μM): 10; Kinase Tested: PI4K2A (PI4K2 alpha)); % Inhibition (mean): 4 ([ATP] Tested (μM): 10; Kinase Tested: PI4K2B (PI4K2 beta)); % Inhibition (mean): -6 ([ATP] Tested (μM): 10; Kinase Tested: PI4KA (PI4K alpha)); % Inhibition (mean): 48 ([ATP] Tested (μM): Km app; Kinase Tested: PI4KB (PI4K beta)); % Inhibition (mean): 20 ([ATP] Tested (μM): 10; Kinase Tested: PIK3C2B (PI3K-C2 beta)); % Inhibition (mean): 22 ([ATP] Tested (μM): 10; Kinase Tested: PIK3C2G (PI3K-C2 gamma)); % Inhibition (mean): 4 ([ATP] Tested (μM): 100; Kinase Tested: PIK3C3 (hVPS34)); % Inhibition (mean): 8 ([ATP] Tested (μM): 10; Kinase Tested: PIK3CA/PIK3R3 (p110 alpha/p55 gamma)); % Inhibition (mean): 7 ([ATP] Tested (μM): 10; Kinase Tested: PIK3CB/PIK3R2 (p110 beta/p85 beta)); % Inhibition (mean): 9 ([ATP] Tested (μM): 10; Kinase Tested: PIP4K2A); % Inhibition (mean): 67 ([ATP] Tested (μM): 10; Kinase Tested: PIP5K1A); % Inhibition (mean): 93 ([ATP] Tested (μM): 10; Kinase Tested: PIP5K1B); % Inhibition (mean): 93 ([ATP] Tested (μM): 10; Kinase Tested: PIP5K1C); % Inhibition (mean): 100 ([ATP] Tested (μM): 100; Kinase Tested: PIKFYVE) | (b) Apilimod: % Inhibition (mean): 100 ([ATP] Tested (μM): 100; Kinase Tested: PIKFYVE) […]
as §1, §2

Experiment [4] deals with PIP5K1B (Homo sapiens, UniProt O14986). Described as above. In kind it is biochemical.
Text: as §9, §10, §1, §2

Experiment [5] deals with PIP5K1A (Homo sapiens, UniProt Q99755). The description is as above. In kind it is biochemical.
Text: as §9, §10, §1, §2

Experiment [6] relates to RPE1 cells. In words: PtdIns(4,5)P2 level by flow cytometry. In kind it is cell-based. To be noted: overnight. As for the experimental part: as §3, §4, §5, §6, §7, §8
RPE1 cells were treated with indicated doses of UNI418 overnight. To analyze PIP2 level by flow cytometry, trypsinized cells were fixed with 4% paraformaldehyde for 10 min at room temperature. […] Cells were washed three times with 1% BSA-PBS and incubated with the fluorescence- conjugated secondary antibody Alexa Fluor® 488 AffiniPure Goat Anti-Mouse IgG (H+L) (Jackson ImmunoResearch,111- 545- 003) for 1h at room temperature analyzed by BD Accuri C6 Plus flow cytometer (BD Biosciences). […]
PtdIns(4,5)P2 level was analyzed by flow cytometry. […] Significance was determined by Student’s t-test, **p < 0.01. b Representative flow cytometry graph for PIP2 level after indicated dose of […]
A general note: Flow cytometry measures light scatter and fluorescence of single cells or particles in a stream.

Experiment [7] concerns SARS-CoV-2 spike protein (Spike-HexaPro). In kind it is cell-based.

The text below walks through data of paper PMC11372076, “A dual inhibitor of PIP5K1C and PIKfyve prevents SARS-CoV-2 entry into cells” (Experimental & Molecular Medicine, 2024).

Chain of PIP5K1B (O14986 whole entry): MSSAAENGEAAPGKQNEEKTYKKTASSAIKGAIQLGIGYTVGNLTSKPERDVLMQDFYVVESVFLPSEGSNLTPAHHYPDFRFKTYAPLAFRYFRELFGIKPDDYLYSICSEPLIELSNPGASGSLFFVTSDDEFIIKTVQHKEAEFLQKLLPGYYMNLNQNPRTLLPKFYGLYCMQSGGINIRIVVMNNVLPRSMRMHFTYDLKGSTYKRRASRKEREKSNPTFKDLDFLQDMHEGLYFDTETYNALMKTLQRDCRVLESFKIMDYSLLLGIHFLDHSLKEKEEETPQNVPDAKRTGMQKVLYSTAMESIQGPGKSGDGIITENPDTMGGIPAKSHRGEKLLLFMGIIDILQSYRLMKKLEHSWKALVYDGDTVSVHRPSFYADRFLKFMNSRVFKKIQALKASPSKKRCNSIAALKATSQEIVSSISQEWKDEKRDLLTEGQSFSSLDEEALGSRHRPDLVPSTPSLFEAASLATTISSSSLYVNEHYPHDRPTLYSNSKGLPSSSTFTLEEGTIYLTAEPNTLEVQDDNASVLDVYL
Chain of PIP5K1A (Q99755 whole entry): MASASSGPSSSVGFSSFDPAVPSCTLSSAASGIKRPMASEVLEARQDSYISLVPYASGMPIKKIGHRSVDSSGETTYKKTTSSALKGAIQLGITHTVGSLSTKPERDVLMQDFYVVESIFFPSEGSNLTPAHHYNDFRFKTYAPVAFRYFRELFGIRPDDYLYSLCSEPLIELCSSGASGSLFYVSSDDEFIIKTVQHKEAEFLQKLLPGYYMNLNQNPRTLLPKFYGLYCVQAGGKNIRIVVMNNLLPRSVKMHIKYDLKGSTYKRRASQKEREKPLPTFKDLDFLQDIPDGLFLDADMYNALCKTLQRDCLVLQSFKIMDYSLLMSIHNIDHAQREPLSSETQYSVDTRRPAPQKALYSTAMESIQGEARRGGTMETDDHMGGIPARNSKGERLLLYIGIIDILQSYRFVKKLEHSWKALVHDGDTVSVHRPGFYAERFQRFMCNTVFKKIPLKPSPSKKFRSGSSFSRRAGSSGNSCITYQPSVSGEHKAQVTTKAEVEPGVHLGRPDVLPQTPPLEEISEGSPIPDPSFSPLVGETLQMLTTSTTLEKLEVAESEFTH
Chain of PIP5K1C (O60331 whole entry): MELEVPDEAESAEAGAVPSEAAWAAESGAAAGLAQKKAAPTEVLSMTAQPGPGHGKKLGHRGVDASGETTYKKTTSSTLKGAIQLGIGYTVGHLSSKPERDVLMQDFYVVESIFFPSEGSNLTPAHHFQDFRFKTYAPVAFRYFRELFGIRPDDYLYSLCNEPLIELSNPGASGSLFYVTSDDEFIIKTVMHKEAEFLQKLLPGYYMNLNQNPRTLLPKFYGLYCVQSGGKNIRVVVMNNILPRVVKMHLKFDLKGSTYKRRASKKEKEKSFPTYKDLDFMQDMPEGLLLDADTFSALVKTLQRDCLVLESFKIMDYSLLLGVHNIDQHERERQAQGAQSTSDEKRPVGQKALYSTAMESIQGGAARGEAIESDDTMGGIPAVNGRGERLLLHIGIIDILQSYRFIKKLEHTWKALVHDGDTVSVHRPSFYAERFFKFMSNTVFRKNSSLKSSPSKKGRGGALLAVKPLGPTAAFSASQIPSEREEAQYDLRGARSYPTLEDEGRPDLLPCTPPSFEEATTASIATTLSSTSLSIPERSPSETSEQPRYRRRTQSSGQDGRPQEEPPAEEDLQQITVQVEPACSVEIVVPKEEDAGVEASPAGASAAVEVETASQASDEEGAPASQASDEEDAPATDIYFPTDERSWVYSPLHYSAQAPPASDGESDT
Chain of PIKFYVE (Q9Y2I7 whole entry): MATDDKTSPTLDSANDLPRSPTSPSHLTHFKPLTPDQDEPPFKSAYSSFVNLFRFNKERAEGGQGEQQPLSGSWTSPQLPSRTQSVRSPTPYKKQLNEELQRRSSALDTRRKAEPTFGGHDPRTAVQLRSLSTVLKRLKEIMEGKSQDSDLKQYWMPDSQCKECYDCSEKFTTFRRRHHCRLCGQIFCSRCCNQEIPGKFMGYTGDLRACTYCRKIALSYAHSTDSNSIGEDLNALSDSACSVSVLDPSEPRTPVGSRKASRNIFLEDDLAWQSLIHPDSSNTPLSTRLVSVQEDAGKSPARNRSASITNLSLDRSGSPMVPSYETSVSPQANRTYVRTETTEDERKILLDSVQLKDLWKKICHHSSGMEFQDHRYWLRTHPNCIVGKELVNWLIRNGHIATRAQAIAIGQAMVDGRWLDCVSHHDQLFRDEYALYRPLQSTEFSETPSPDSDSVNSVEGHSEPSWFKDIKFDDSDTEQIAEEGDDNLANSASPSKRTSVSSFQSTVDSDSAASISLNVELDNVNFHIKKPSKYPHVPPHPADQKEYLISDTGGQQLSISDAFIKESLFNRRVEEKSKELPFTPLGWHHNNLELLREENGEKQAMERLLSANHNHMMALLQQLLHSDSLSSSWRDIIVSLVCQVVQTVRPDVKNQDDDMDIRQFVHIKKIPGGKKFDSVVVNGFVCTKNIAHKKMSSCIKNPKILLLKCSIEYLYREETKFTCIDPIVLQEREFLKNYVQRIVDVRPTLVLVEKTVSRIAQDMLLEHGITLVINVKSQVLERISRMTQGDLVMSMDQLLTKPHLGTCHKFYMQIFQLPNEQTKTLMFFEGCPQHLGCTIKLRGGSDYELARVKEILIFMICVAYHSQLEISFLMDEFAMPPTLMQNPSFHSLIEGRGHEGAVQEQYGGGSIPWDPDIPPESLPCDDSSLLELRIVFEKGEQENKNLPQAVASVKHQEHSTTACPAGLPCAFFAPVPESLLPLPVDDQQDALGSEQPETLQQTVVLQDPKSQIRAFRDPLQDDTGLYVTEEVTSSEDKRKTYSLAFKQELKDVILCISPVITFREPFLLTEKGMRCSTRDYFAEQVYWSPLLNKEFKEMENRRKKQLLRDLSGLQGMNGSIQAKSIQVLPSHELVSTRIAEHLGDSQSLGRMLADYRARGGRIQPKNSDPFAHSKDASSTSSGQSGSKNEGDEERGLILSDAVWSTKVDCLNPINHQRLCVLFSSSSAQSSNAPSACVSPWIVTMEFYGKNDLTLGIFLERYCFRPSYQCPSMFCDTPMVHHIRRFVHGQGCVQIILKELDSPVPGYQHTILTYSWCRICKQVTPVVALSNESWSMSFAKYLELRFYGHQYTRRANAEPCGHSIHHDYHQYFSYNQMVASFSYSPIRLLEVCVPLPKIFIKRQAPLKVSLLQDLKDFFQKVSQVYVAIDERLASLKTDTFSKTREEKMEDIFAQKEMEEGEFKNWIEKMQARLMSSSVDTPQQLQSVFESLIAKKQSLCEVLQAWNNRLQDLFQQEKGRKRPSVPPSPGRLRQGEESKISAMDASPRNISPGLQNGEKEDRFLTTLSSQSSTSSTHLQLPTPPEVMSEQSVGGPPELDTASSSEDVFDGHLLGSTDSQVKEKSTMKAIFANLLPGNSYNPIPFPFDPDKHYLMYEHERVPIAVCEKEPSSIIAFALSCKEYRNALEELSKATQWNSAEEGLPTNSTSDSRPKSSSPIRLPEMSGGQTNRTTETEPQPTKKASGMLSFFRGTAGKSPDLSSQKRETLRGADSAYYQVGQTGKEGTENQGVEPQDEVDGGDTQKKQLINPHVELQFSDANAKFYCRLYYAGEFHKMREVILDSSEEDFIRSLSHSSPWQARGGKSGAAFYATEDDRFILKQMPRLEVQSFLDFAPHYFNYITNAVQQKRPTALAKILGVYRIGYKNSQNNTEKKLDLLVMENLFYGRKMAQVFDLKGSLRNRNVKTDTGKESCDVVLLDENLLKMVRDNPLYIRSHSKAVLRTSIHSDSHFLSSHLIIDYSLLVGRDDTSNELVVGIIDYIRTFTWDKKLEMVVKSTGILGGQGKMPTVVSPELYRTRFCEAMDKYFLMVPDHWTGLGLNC

Usually Kd stands for the equilibrium constant for the complex coming apart. High values mean lower affinity, low ones higher affinity. In general, IC50 refers to the concentration at which inhibition is half-maximal. As a reminder, the inhibition is the relative decrease from the control value, in per cent. High values mean strong suppression, low ones little suppression. `c1ccc(-c2cc(Nc3nc(-c4ccncc4)nc4ccccc34)n[nH]2)cc1` [UNI418, N -(5-phenyl-1 H -pyrazol-3-yl)-2-(4-pyridinyl)-4-quinazolinamine] displayed a Kd in experiment [1] of 0.78 nM. For the same compound, the vacuolization entry in experiment [2] is reported as “induced vacuolization”. Also, the IC50 came to 60.1 nM in experiment [3], 60.7 nM in experiment [4] and 255 nM in experiment [5]. Moreover, the inhibition at 1 µM in experiment [3] (1 μM UNI418, [ATP] 10 μM) was found to be 93%; in experiment [4] (1 μM UNI418, [ATP] 10 μM) it was 93%; in experiment [5] (1 μM UNI418, [ATP] 10 μM), 67%. Also, the “levels of PtdIns(4,5)P2” value in experiment [6] is given as “reduced”. In experiment [7], the “delay in generation of the mature Spike-HexaPro cleavage product” value is on record as 3 h.
